Measured values as given in US20070225355A1, “Dietary Compositions for Enhancing Metabolism and Reducing Reactive Oxygen Species” (Elixirin Corporation, priority 2004, published 2007).

Key:
oxidation level of DNA = assay: Oxidation level of DNA in hippocampus sections (anti-8-hydroxy-2'-deoxyguanosine/8-hydroxyguanosine immunocytochemistry); format: in vivo; details: rat brain hippocampus sections, fed 7 weeks; mean of 5 animals; standard deviation about 15%
Text: The rats in the experimental group (5 each) were fed either 0.5% (wt/vol) acetyl-L-camitine in water, 1.0% (wt/vol) polyphenol in water; 0.2% (wt/wt) lipoic acid in AIN93M diet, or a combination of the above. Rats were acclimated for one week before experiments. Rats were fed for the above treatment for 7 weeks before tests. Control rats were fed with water and AIN93M diet only. For assaying DNA oxidation, rats from each treatment group (5 animals per group) was anesthetized with ether and perfused with paraformaldehyde. The brain was removed and postfixed for paraffin sections. Sections of hippocampus were incubated with anti-8-hydroxy-2′-deoxyguanosine/8-hydroxyguanosine and visualized by using standard immunocytochemical methods. Quantification of oxidation was done as described in Liu, J K, et al., (Proc. Natl. Acad. Sci USA, 99:1356-2361, 2002). Values are a mean of 5 animals. The standard deviation is about 15%.

Fischer 344 male rats = assay: Morris water maze spatial memory test in rats; format: in vivo, rat; details: fed 7 weeks, 4 consecutive days, 4 trials per day, averaged, standard deviation around 20%
Text: FIG. 1 of 2 depicts measurements of spatial memory in (Fischer 344 male rats) subjected to a water maze test, after treatment with carnitine, lipoic acid, and/or polyphenol. […] The Morris maze task tests spatial memory by requiring rats to fmd a submerged platform in a pool of water using external visual cues (Morris, R. 1984; J. Neurosci. Methods, 11:47-60; Schenk, F. and Morris, R, Exp. Brain Res. 58:11-28, 1985). The rats in the experimental group (5 each) were fed either 0.5% (wt/vol) acetyl-L-carnitine in water, 1.0% (wt/vol) polyphenol in water; 0.2% (wt/wt) lipoic acid in AIN93M diet, or a combination of the above. Rats were acclimated for one week before experiments. Rats were fed for the above treatment for 7 weeks before tests. Trials (4 consecutive days, 4 trials per day) were conducted and the results averaged. The standard deviation is around 20%. Control rats were fed with water and AIN93M diet only.

## O=C(O)CCCC[C@@H]1CCSS1 (racemic) [lipoic acid]
Oxidation level of DNA
  DNA oxidation level compared with rats having no treatment: ~82%
Fischer 344 male rats
  mastery of the water maze, faster over no treatment: ~79%
